# Source: article PMC9412875, “^64Cu-DOTHA2-PSMA, a Novel PSMA PET Radiotracer for Prostate Cancer with a Long Imaging Time Window” (Pharmaceuticals, 2022)
# “Also recorded” adds a separate entry of the source.
# Experiments:
# LNCaP cells [1] = assay: Cellular efflux assay; assay type: cell-based, human
# Protocol: Here, 12-well polylysine-coated Cellbind plates were seeded with 150 × 10^3 LNCaP cells with 1.75 mL of cell media. At 70–100% confluence (3 days of growth), the cell medium was changed and 37 kBq of ^64Cu-DOTHA2-PSMA in 1 mL of cell medium was added to each well of group 1 and 160 kBq to each of group 2.
# For efflux assays, after adding ^64Cu-DOTHA2-PSMA, cells were incubated for 60 min for the time points 15 min to 4 h (group 1) and incubated for 4 h for the time points 4 h to 48 h (group 2). After incubation, the medium was removed, cells were washed with 1 mL of cold PBS, 1 mL of cell media was added and, similarly to uptake and internalization, cells were again incubated in nonradioactive media for 0, 15, 30, 45, 60 min, 2 h, 4 h (group 1) and 4 h, 8 h, 24 h, 32 h or 48 h (group 2) (3 wells per time point). After respective incubation times per well, the medium was removed, and cells were washed with 1 mL of cold PBS, then removed from the well with 1 mL of trypsin to measure the residual radioactivity by gamma counter. The results of residual activity were expressed as percentage of the 1 h (Group 1) or 4 h (Group 2) uptake activity (0 min of efflux time-point) as a function of time for 10^6 cells.
# All the assays were performed at least 3 times, each with different ^64Cu-DOTHA2-PSMA production and cell passage. Cells were counted in 3 wells for each protocol (uptake, internalization, and efflux) on day 1 and day 3 of each experiment and an average for cells numbers at day 2.
# LNCaP cells [2] = assay: Cellular efflux assay; assay type: cell-based, human; conditions: 1h incubation, efflux time 3 h
# LNCaP tumor = assay: PET imaging of LNCaP tumor-bearing mice; assay type: in vivo, NRG mice
# Protocol: All the experiments were conducted according to a protocol approved by the Animal Ethics Committee of the Université de Sherbrooke and were in accordance with the guidelines of the Canadian Council on Animal Care. All animal manipulations that could cause pain, stress, or that required immobilization were performed under isoflurane anesthesia (2% in 2 L/min oxygen) with a heating pad or bed. When protocols required animal death (e.g., biodistribution) or ethical limits (e.g., tumor size) were reached, euthanasia was performed by CO2 inhalation under isoflurane anesthesia. […] For PET imaging, NRG mice were used (The Jack Laboratory, 7–10 weeks old, and 19–26 g at time of experiment). A total of 200 µL of a 1:1 Matrigel/PBS mixture containing […] LNCaP cells was injected subcutaneously on each shoulder of NRG mice. Experiments were initiated 2 to 4 weeks after inoculation when tumors reached a diameter between 5 and 10 mm.
# Dynamic (0–1 h p.i.) and static (4 h, 20 min long and 24 h p.i., 1h long) PET assays were performed in combination with 5 min CT in NRG mice injected with 8 MBq of ^64Cu-DOTHA2-PSMA in 0.3 mL of saline through the tail vein (LabPET 8/-Triumph; Gamma Medica, Northridge, CA, USA). Blocking was achieved by the co-injection of 20 nmol of ^natCu-DOTHA2-PSMA (n = 3 per group). We selected this blocking agent because its pharmacokinetics are similar to ^64Cu-DOTHA2-PSMA. PET images were reconstructed using the three-dimensional maximum likelihood […] method (MLEM-3D) algorithm with 20 iterations and a 60 mm field-of-view (Gamma Medica). The analyses were conducted using AMIDE software 1.0.4. Quantitative image data were reported as %IA per volume (centimeter cube, cc).
# [3] = In vivo stability (blood, urine, liver) after injection; set-up: species or system balb/c mice
# Protocol: For metabolite analysis, three balb/c mice were injected with a bolus of 32 MBq of ^64Cu-DOTHA2-PSMA in 0.3 mL saline by tail vein (real IA: 26.4–39.0 MBq). Blood was collected at 1 h p.i. (0.01–0.1 mL) in heparin-coated tubes and then centrifuged at 10,000 rpm for 10 min. Subsequently, the pellet and supernatant were separated, and the relative activity was determined. Radio-TLC was performed to assess the stability of the radiolabeled compound in the blood and in plasma. Two balb/c mice were injected with 45 MBq (real IA: 44.7–45.5 MBq). Urine was collected at 1 h p.i. and analyzed by UPLC. Two balb/c mice were injected with 59 MBq and then euthanized and dissected at 2 h p.i. to harvest the liver (real IA: 58.9–59.3 MBq). The livers were promptly washed and put on ice. They were homogenized with an ice-cold piston with 1 mL of water, extracted, centrifuged (14,000 rpm; 3 min), and mixed with 1 mL of acetonitrile before 4 further cycles of centrifugation and the collection of supernatants. All the pellets were mixed with 1 mL of 10% TFA and centrifuged, and the final supernatant was analyzed by Radio-TLC. The activity was measured in all the supernatants.
# [4] = in mice, 1 h p.i., after 10% TFA
smiles,measurement,setting,value
CN([O-])C(=O)CN1CCN(CC(=O)NCC2CCC(C(=O)NC(Cc3ccc4ccccc4c3)C(=O)NCCCCC(NC(=O)NC(CCC(=O)O)C(=O)O)C(=O)O)CC2)CCN(CC(=O)N(C)[O-])CCN(CC(=O)N(C)O)CC1.[64Cu+2] (stereo not drawn) [^64Cu-DOTHA2-PSMA],Retained activity normalized to time 0,"LNCaP cells [1]; 1h incubation, efflux time 0.25 h",100.93%
same,Retained activity normalized to time 0,"LNCaP cells [1]; 1h incubation, efflux time 0.50 h",105.51%
same,Retained activity normalized to time 0,"LNCaP cells [1]; 1h incubation, efflux time 0.75 h",94.38%
same,Retained activity normalized to time 0,"LNCaP cells [1]; 1h incubation, efflux time 1 h",77.52%
same,Retained activity normalized to time 0,"LNCaP cells [1]; 1h incubation, efflux time 2 h",80.95%
same,Retained activity normalized to time 0,"LNCaP cells [1]; 1h incubation, efflux time 4 h",64.04%
same,Retained activity normalized to time 0,"LNCaP cells [1]; 4h incubation, efflux time 4 h",66.23%
same,Retained activity normalized to time 0,"LNCaP cells [1]; 4h incubation, efflux time 8 h",51.88%
same,Retained activity normalized to time 0,"LNCaP cells [1]; 4h incubation, efflux time 24 h",35.10%
same,Retained activity normalized to time 0,"LNCaP cells [1]; 4h incubation, efflux time 32 h",34.27%
same,Retained activity normalized to time 0,"LNCaP cells [1]; 4h incubation, efflux time 48 h",48.61%
same,Retained activity normalized to time 0,LNCaP cells [2],76.53%
same,tumor uptake (PET),"LNCaP tumor; 1 h p.i., co-injection of blocking agent (20 nmol natCu-DOTHA2-PSMA)",4.78 ± 0.96 % IA/cc
same,"liver uptake (PET, peak)",LNCaP tumor; 4 h p.i.,26.8 ± 5.3 % IA/cc
same,tumor uptake (PET),"LNCaP tumor; 4 h p.i., co-injection of blocking agent (20 nmol natCu-DOTHA2-PSMA)",7.46 ± 1.07 % IA/cc
same,tumor uptake (PET),"LNCaP tumor; 24 h p.i., co-injection of blocking agent (20 nmol natCu-DOTHA2-PSMA)",8.62 ± 0.74 % IA/cc
same,tumor uptake (PET),"LNCaP tumor; LNCaP tumor, NRG mice, 1 h p.i., non-blocked",14.0 ± 5.0 % IA/cc
same,tumor uptake (PET),"LNCaP tumor; LNCaP tumor, NRG mice, 4 h p.i., non-blocked",23.8 ± 11.5 % IA/cc
same,tumor uptake (PET),"LNCaP tumor; LNCaP tumor, NRG mice, 24 h p.i., non-blocked",18.5 ± 6.6 % IA/cc
same,time of highest tumoral uptake,"LNCaP tumor; PET, LNCaP tumor",4 h p.i.
same,"time of peak kidney uptake, calyxes",LNCaP tumor; dynamic PET,10 min p.i.
same,"time of peak kidney uptake, cortex",LNCaP tumor; dynamic PET,5 min p.i.
same,tumor-to-kidney ratios,LNCaP tumor; from 1 h p.i.,greater than 1
same,time of peak of urinary clearance (kidney calyxes and cortex signals),LNCaP tumor; time-activity curves,≤ 10 min
same,64Cu metabolite observed in the liver,"[3]; balb/c mice, 2 h p.i., radio-TLC",25%
same,tracer form found in urine,"[3]; balb/c mice, urine 1 h p.i., UPLC",intact ^64Cu tracer was found in urine; also recorded: no metabolite was observed in urine
same,64Cu and 64Cu-DOTHA2-PSMA Bound to Plasma Proteins,"[3]; in mice, 1 h p.i.",48%
same,64Cu dissociation in combined supernatant and plasma proteins,"[3]; in mice, 1 h p.i.",4.58%
same,64Cu released from Proteins,[3]; [4],1.98%
same,64Cu-DOTHA2-PSMA Released from Proteins,[3]; [4],31%
same,64Cu in the Supernatant,"[3]; in mice, blood 1 h p.i., % of total plasma signal",2.60%
same,"free 64Cu in blood (peak in plasma supernatant, radio-TLC)","[3]; mice, 1 h p.i.",5%
same,free 64Cu in the liver,"[3]; mice, 2 h p.i., radio-TLC",no free ^64Cu was observed; also recorded: free ^64Cu was not seen in liver
